For assay [1], the target named is T1, human GPR139 receptor (Homo sapiens, UniProt Q6DWJ6).
T1 construct: expressed in transfected cells; host or cells: T-REx-CHO (Thermo Fisher Scientific), doxycycline-induced
T1 sequence (Q6DWJ6 1-353): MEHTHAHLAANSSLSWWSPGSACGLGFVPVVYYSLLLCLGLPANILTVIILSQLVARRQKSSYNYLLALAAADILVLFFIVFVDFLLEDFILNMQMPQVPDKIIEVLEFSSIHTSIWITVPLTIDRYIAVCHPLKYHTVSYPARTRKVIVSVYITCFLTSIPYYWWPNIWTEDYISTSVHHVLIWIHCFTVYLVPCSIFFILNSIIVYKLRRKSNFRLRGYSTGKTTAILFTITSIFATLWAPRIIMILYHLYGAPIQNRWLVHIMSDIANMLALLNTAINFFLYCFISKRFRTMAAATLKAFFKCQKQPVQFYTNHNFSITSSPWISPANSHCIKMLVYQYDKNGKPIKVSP
The experiment in a line: GPR139 Competition Binding (membrane-based, tritium-labeled ligand). The note with it: T-REx-CHO membranes with human GPR139; 6.5 nM tritium-labeled ligand; 11-point curve, 30 μM maximum concentration; read-out: GPR139 Binding Affinity (pKi) (converted). As to the method:
OPR139 Competition Binding
This membrane-based assay measures the ability of compounds to competitively bind GPR139 in stably transfected TREx™-CHO membranes. To prepare the membranes, T-REx™-CHO (Thermo Fisher Scientific®) cells are stably expressed with human GPR139 receptor, whose expression is controlled by a tetracycline-inducible element. The cells are cultured in medium containing F-12K nutrient mixture-Kaighn's modification, 10% tetracycline-free FBS, Blasticidin S HCl (10 μg/mL) and Hygromycin B (200 μg/mL). GPR139 receptor expression is induced for 18 hours with 2 μg/mL doxycycline (Sigma D9891) in growth media. After addition of doxycycline, cells are harvested in PBS and pelleted by centrifugation for 5 minutes at 200×G. Liquid is aspirated off and cells are resuspended in ice cold lysis buffer (20 mM HEPES/5 mM EDTA pH 7.4/1× Roche® protease inhibitor). Samples are vortexed until homogenous and then placed on ice and homogenized using a Dounce homogenizer at 50% power (3 cycles, 10 strokes per cycle). Lysate is centrifuged at 4° C. for 10 minutes in a tabletop Sorvall® centrifuge at 2000×G. The supernatant is recovered and centrifuged in a Sorvall® ultracentrifuge at 35,000 rpm for 30 minutes at 4° C. The supernatant is discarded, and the remaining pellet resuspended in lysis buffer (20 mM HEPES/0.1 mM EGTA/Roche® protease inhibitor). Membrane protein concentration is determined using Thermo Fisher® BCA quantification kit and is aliquoted into microtubes. Tubes are snap frozen in liquid nitrogen and stored at −80° C. Prior to use, the membranes are removed from cold storage, thawed to room temperature, vortexed until homogenous and diluted in assay buffer (20 mM HEPES pH 7.3, 5 mM MgCl2, 1 mM CaCl2), 1× Thermo Scientific® Halt™ protease inhibitor (78429)).
The assay is run in 96-well, polypropylene, v-bottom plates (Greiner Bio-One® 651201). Test compound in DMSO is added to the wells of each plate (11-point dose response curve, 30 μM maximum concentration, 3-fold serial dilution). A fixed amount of tritium-labeled ligand, (S)-2-(2,3-dimethyl-7-oxothieno[2,3-d]pyridazin-6(7H)-yl)-N-(1-(4-methoxyphenyl-2-t)propan-2-yl)acetamide (Quotient Bioresearch) in assay buffer (6.5 nM assay concentration) is added to each well of the assay plate, which is then agitated on a plate shaker for 30 seconds. Next, a fixed amount of membranes in assay buffer (2 μg membranes) is added to each well of the assay plate, which is then spun for 30 seconds at 300 rpm in a tabletop Eppendorf centrifuge, and then incubated at room temperature for 20 minutes. Using a Tomtec harvester, the contents of the assay plate are transferred to Filtermat A (PerkinElmer® No. 1450-421) which prior to use is pre-soaked in 0.5% PEI (Sigma P3143) for 3 hours and dried at room temperature overnight. Following transfer, the Filtermat is washed 5 times with cold wash buffer (20 mM HEPES pH 7.3, 100 mM NaCl). The Filtermat is dried using a microwave oven and placed in a sample bag (PerkinElmer® No. 1450-432) with a scintillator sheet (PerkinElmer® No. 1450-411). The scintillator sheet is melted to the Filtermat using a heat block set to 65° C., placed in a MicroBeta® cartridge and read using a MicroBeta® scintillation counter. Binding curves are generated with a four-parameter logistic equation using GraphPad Prism® 6 and the inhibition constant Ki is reported as pKi.

Assay [2] concerns the target T1, human GPR139 receptor. As to the kind of experiment: Measurement of GPR139 Activation Via Calcium Signaling (FLIPR, T-REx-CHO cells). Format: cell-based. To be noted: T-REx-CHO cells stably expressing human GPR139, 11-point dose response, 10 μM maximum concentration, read-out: GPR139 Potency (pEC50) (converted). In short, it runs like this: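 T-REx-CHO cells stably carrying human GPR139 under tetracycline control, induced with 2 μg/mL doxycycline for 17 h at 37 °C, loaded 40 min with Calcium 5 dye plus probenecid in HBSS/HEPES pH 7.4. Agonist added as 11-point series (10 μM top); fluorescence read 1 min; pEC50 from four-parameter fit.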

The structures appear in SMILES notation.

Turning to `Cc1ccc([C@H](C)NC(=O)Cn2ncc3c(c(C)cn3C3CC3)c2=O)c(C)c1` [Example 65, (S)-2-(1-cyclopropyl-3-methyl-4-oxo-1,4-dihydro-5H-pyrrolo[2,3-d]pyridazin-5-yl)-N-(1-(2,4-dimethylphenyl)ethyl)acetamide], on human GPR139 receptor [1], the Ki is 3.72 nM. For the same compound, the EC50 on human GPR139 receptor [2] was 67.6 nM.
The like results for `Cc1nn(C)c2cnn(CC(=O)N[C@@H](C)c3ccc(OC(F)(F)F)cc3)c(=O)c12` [Example 47, (S)-2-(1,3-dimethyl-4-oxo-1,4-dihydro-5H-pyrazolo[3,4-d]pyridazin-5-yl)-N-(1-(4-(trifluoromethoxy)phenyl)ethyl)acetamide] were, in that order, 162 nM and 37.2 nM.
The like results for `COc1ccc([C@H](C)NC(=O)Cn2ncc3c(c(C4CC4)nn3C(C)C)c2=O)cc1` [Example 18, (S)-2-(3-cyclopropyl-1-isopropyl-4-oxo-1,4-dihydro-5H-pyrazolo[3,4-d]pyridazin-5-yl)-N-(1-(4-methoxyphenyl)ethyl)acetamide] were, in that order, 355 nM and 170 nM.
For `COc1ccc([C@H](C)NC(=O)Cn2ncc3c(c(C)nn3C3CC3)c2=O)cc1F` [Example 129, (S)-2-(1-cyclopropyl-3-methyl-4-oxo-1,4-dihydro-5H-pyrazolo[3,4-d]pyridazin-5-yl)-N-(1-(3-fluoro-4-methoxyphenyl)ethyl)acetamide], on human GPR139 receptor [1], the Ki was 724 nM. The EC50 at human GPR139 receptor [2] was 53.7 nM.
As to `COc1ccc([C@H](C)NC(=O)Cn2ncc3c(c(C)nn3C)c2=O)c(F)c1` [Example 19, (S)-2-(1,3-dimethyl-4-oxo-1,4-dihydro-5H-pyrazolo[3,4-d]pyridazin-5-yl)-N-(1-(2-fluoro-4-methoxyphenyl)ethyl)acetamide], at human GPR139 receptor [1], the Ki was 1070 nM. In addition, the EC50 on human GPR139 receptor [2] is 67.6 nM.
The like results for `Cc1ccc([C@H](C)NC(=O)Cn2ncc3c(C)nn(C4CC4)c3c2=O)cc1` [Example 28, (S)-2-(1-cyclopropyl-3-methyl-7-oxo-1,7-dihydro-6H-pyrazolo[3,4-d]pyridazin-6-yl)-N-(1-(p-tolyl)ethyl)acetamide] were, in that order, 32.4 nM and 52.5 nM.
The like results for `CC(C)c1nn(C)c2cnn(CC(=O)N[C@@H](C)c3ccc(OC(F)(F)F)cc3)c(=O)c12` [Example 50, (S)-2-(3-isopropyl-1-methyl-4-oxo-1,4-dihydro-5H-pyrazolo[3,4-d]pyridazin-5-yl)-N-(1-(4-(trifluoromethoxy)phenyl)ethyl)acetamide] were, in that order, 126 nM and 166 nM.
For `COc1ccc([C@H](C)NC(=O)Cn2ncc3ccn(C)c3c2=O)cc1` [Example 163, (S)—N-(1-(4-methoxyphenyl)ethyl)-2-(1-methyl-7-oxo-1,7-dihydro-6H-pyrrolo[2,3-d]pyridazin-6-yl)acetamide], at human GPR139 receptor [1], the Ki is 1780 nM. Also, the EC50 at human GPR139 receptor [2] is 15.5 nM.
The like results for `Cc1nn(C2CC2)c2cnn(CC(=O)N[C@@H](C)c3ccc(Cl)cc3F)c(=O)c12` [Example 24, (S)—N-(1-(4-chloro-2-fluorophenyl)ethyl)-2-(1-cyclopropyl-3-methyl-4-oxo-1,4-dihydro-5H-pyrazolo[3,4-d]pyridazin-5-yl)acetamide] were, in that order, 97.7 nM and 46.8 nM.
The like results for `Cc1nn(C)c2c(C)nn(CC(=O)N[C@@H](C)c3ccc(C(F)(F)F)cc3)c(=O)c12` [Example 114, (S)—N-(1-(4-(trifluoromethyl)phenyl)ethyl)-2-(1,3,7-trimethyl-4-oxo-1,4-dihydro-5H-pyrazolo[3,4-d]pyridazin-5-yl)acetamide] were, in that order, 204 nM and 132 nM.
The like results for `CC(C)c1nn(CC(=O)N[C@@H](C)c2ccc(C(F)(F)F)cc2)c(=O)c2c1cnn2C(C)(C)C` [Example 12, (S)-2-(1-(tert-butyl)-4-isopropyl-7-oxo-1,7-dihydro-6/1-pyrazolo[3,4-d]pyridazin-6-yl)-N-(1-(4-(trifluoromethyl)phenyl)ethyl)acetamide] were, in that order, 33.9 nM and 2140 nM.
With `Cc1nn(CC(=O)N[C@@H](C)c2ccc(C(F)(F)F)cn2)c(=O)c2ncn(C)c12` [Example 137, (S)-2-(1,7-dimethyl-4-oxo-1,4-dihydro-5H-imidazo[4,5-d]pyridazin-5-yl)-N-(1-(5-(trifluoromethyl)pyridin-2-yl)ethyl)acetamide], the Ki on human GPR139 receptor [1] is 30200 nM. In addition, the EC50 on human GPR139 receptor [2] was 2630 nM.
The like results for `Cc1nn(CC(=O)NC(C)c2ccc3c(c2)OCCO3)c(=O)c2c1c(C)nn2C1CC1` (stereo not drawn) [Example 105, 2-(1-cyclopropyl-3,4-dimethyl-7-oxo-1,7-dihydro-6H-pyrazolo[3,4-d]pyridazin-6-yl)-N-(1-(2,3-dihydrobenzo[b][1,4]dioxin-6-yl)ethyl)acetamide] were, in that order, 97.7 nM and 107 nM.
For `Cc1ccc([C@H](C)NC(=O)Cn2ncc3c(cnn3C(C)C)c2=O)c(F)c1` [Example 88, (S)—N-(1-(2-fluoro-4-methylphenyl)ethyl)-2-(1-isopropyl-4-oxo-1,4-dihydro-5H-pyrazolo[3,4-d]pyridazin-5-yl)acetamide], the Ki on human GPR139 receptor [1] is 676 nM. Further, the EC50 at human GPR139 receptor [2] was 77.6 nM.
`Cc1nn(CC(=O)N[C@@H](C)c2ccc(C(F)(F)F)cn2)c(=O)c2c1c(C)nn2C1CC1` [Example 101, (S)-2-(1-cyclopropyl-3,4-dimethyl-7-oxo-1,7-dihydro-6H-pyrazolo[3,4-d]pyridazin-6-yl)-N-(1-(5-(trifluoromethyl)pyridin-2-yl)ethyl)acetamide]: on human GPR139 receptor [1], the Ki was 282 nM. The EC50 on human GPR139 receptor [2] was 398 nM.
The like results for `Cc1nn(CC(=O)N[C@@H](C)c2ccc(OC(F)(F)F)cc2)c(=O)c2c(C3CC3)nn(C)c12` [Example 118, (S)-2-(3-cyclopropyl-1,7-dimethyl-4-oxo-1,4-dihydro-5H-pyrazolo[3,4-d]pyridazin-5-yl)-N-(1-(4-(trifluoromethoxy)phenyl)ethyl)acetamide] were, in that order, 23.4 nM and 69.2 nM.
As for `COc1ccc([C@H](C)NC(=O)Cn2ncc3c(c(C)cn3C3CC3)c2=O)cc1` [Example 145, (S)-2-(1-cyclopropyl-3-methyl-4-oxo-1,4-dihydro-5H-pyrrolo[2,3-d]pyridazin-5-yl)-N-(1-(4-methoxyphenyl)ethyl)acetamide], the Ki at human GPR139 receptor [1] was 89.1 nM. In addition, the EC50 at human GPR139 receptor [2] was 29.5 nM.
Take `COc1ccc([C@H](C)NC(=O)Cn2ncc3c(c(C(C)C)nn3C)c2=O)cc1` [Example 53, (S)-2-(3-isopropyl-1-methyl-4-oxo-1,4-dihydro-5H-pyrazolo[3,4-d]pyridazin-5-yl)-N-(1-(4-methoxyphenyl)ethyl)acetamide]: the Ki at human GPR139 receptor [1] was 1020 nM. Moreover, the EC50 at human GPR139 receptor [2] was 55 nM.
